Molecular target: human plasma kallikrein (Homo sapiens, UniProt P03952)
Assay: Kallikrein inhibition FLINT assay with quenched AMC peptide substrate Z-Gly-Pro-Arg-AMC (end point EP or kinetic KIN reads)
Format: biochemical
Conditions: kinetic reads at 5 min intervals over 30 min; read-out: Kallikrein (KIN) IC50
How it was run: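 Enzyme and compound were preincubated 30 min before adding 50 μM AMC substrate in pH 7.5 Tris/NaCl/CaCl2/BSA/CHAPS buffer. AMC release was read at 30 min endpoint or every 5 min.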

Sequence of human plasma kallikrein (P03952 391-638 limits assumed): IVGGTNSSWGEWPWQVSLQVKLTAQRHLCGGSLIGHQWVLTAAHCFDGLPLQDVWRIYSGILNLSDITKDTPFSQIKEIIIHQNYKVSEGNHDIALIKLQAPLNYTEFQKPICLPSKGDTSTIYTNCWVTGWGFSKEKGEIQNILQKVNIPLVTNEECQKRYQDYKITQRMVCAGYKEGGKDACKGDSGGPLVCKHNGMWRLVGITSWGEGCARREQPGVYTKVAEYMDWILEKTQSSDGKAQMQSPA
Sequence of human plasma kallikrein (P03952 20-390 partner limits assumed): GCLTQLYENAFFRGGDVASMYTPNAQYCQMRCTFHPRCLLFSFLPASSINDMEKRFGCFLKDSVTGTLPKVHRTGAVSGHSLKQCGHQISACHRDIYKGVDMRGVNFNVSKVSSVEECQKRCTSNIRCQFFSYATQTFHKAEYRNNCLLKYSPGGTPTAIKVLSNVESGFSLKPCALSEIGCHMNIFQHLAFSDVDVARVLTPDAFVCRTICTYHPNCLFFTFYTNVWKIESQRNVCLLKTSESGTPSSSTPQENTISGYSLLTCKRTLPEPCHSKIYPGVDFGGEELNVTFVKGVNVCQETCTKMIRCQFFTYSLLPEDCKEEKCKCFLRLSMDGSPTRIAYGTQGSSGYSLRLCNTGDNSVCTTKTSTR

## COCCC(c1ccc(-c2c(-n3cc(Cl)nn3)ccc(Cl)c2F)c[n+]1[O-])n1cc(-c2c(Cl)nnn2C)cn1 (centres unmarked) [Example P639]
  IC50: 316 nM

## Cn1nnc(F)c1-c1cnn([C@H](Cc2ccc(C(F)(F)F)nc2)c2ccc(-c3c(-n4cnnn4)ccc(Cl)c3F)c[n+]2[O-])c1 [Example P780]
  IC50: 17.7 nM

## Cc1cc(C(CC2CC2)n2cc(-c3cnn(C)c(=O)c3)cn2)[n+]([O-])cc1-c1c(-n2cnnn2)ccc(Cl)c1F (centres unmarked) [Example P130]
  IC50: 959 nM

## NC(=O)c1ccc(-c2cnn(C(CCOC(F)F)c3ccc(-c4c(-n5cc(C(F)(F)F)nn5)ccc(Cl)c4F)c[n+]3[O-])c2)cc1F (centres unmarked) [Example P844]
  IC50: 31.3 nM

## CCC(c1ccc(-c2c(-n3cc(C(F)(F)F)nn3)ccc(Cl)c2F)c[n+]1[O-])n1cc(-c2ccc(C(N)=O)c(F)c2)cn1 (single isomer, unassigned) [Example P883]
  IC50: 103 nM

## NC(=O)c1scc(-c2cnn(C(CC3CC3)c3ccc(-c4c(-n5cnnn5)ccc(Cl)c4F)c[n+]3[O-])c2)c1F (single isomer, unassigned) [Example P954]
  IC50: 788 nM

## CN(CC(c1ccc(-c2c(-n3cnnn3)ccc(Cl)c2F)c[n+]1[O-])n1cc(-c2ccnc(C(F)(F)F)c2)cn1)C(=O)c1ccn(C)c(=O)c1 (single isomer, unassigned) [Example P435]
  IC50: 9.7 nM

## CN(CC(c1ccc(-c2c(-n3cnnn3)ccc(Cl)c2F)c[n+]1[O-])n1cc(-c2ccnc(C(F)(F)F)c2)cn1)C(=O)c1ccccc1 (single isomer, unassigned) [Example P423]
  IC50: 43.9 nM

## [O-][n+]1cc(-c2c(-n3cnnn3)ccc(Cl)c2F)ccc1C(CCOC(F)F)n1cc(-c2c(Cl)cnn2C(F)F)cn1 (centres unmarked) [Example P574]
  IC50: 7.9 nM

## CC1CC1CC(c1ccc(-c2c(-n3cnnn3)ccc(Cl)c2F)c[n+]1[O-])n1cc(-c2ncnn2C(F)F)cn1 (centres unmarked) [Example P767]
  IC50: > 100 nM

## [O-][n+]1cc(-c2c(-n3cnnn3)ccc(Cl)c2F)ccc1C(Cc1ccc(F)cc1)n1cc(-c2ccncc2)cn1 (single isomer, unassigned) [Example P236]
  IC50: 158 nM

## Nc1ncc(-c2cnn([C@H](CC3CC3)c3ccc(-c4c(-n5cnnn5)ccc(Cl)c4F)c[n+]3[O-])c2)s1 [Example P614]
  IC50: 8 nM

## [O-][n+]1cc(-c2c(-n3cnnn3)ccc(Cl)c2F)ccc1[C@H](Cc1cn(C(F)F)nn1)n1cc(-c2ccnc(C(F)(F)F)c2)cn1 [Example P746]
  IC50: 588 nM

## COCC[C@H](c1ccc(-c2c(-n3cnnn3)ccc(Cl)c2F)c[n+]1[O-])n1cc(-c2cnc(C(F)F)s2)cn1 [Example P531]
  IC50: 174 nM

## [O-][n+]1cc(-c2c(-n3cnnn3)ccc(Cl)c2F)ccc1C(Cn1cc(F)cn1)n1cc(-c2ccnc(C(F)(F)F)c2)cn1 (centres unmarked) [Example P275]
  IC50: 19.1 nM

## COC(=O)Nc1ccc(-c2cnn(C(Cc3ccccc3OC)c3ccc(-c4c(-n5cnnn5)ccc(Cl)c4F)c[n+]3[O-])c2)cc1 (centres unmarked) [Example P164]
  IC50: 28.5 nM

## COC(=O)Nc1ccc(-c2cnn(C(CC3CCCCO3)c3ccc(-c4c(-n5cnnn5)ccc(Cl)c4F)c[n+]3[O-])c2)cc1 (single isomer, unassigned) [Example P115]
  IC50: 29.1 nM

## COC(=O)CC(c1ccc(-c2c(-n3cc(C(F)(F)F)nn3)ccc(Cl)c2F)c[n+]1[O-])n1cc(-c2ccc(C(=O)O)c(F)c2)cn1 (centres unmarked) [Example P890]
  IC50: 105 nM

## NC(=O)c1ccc(-c2cnn(C(Cc3ccn(C(F)F)n3)c3ccc(-c4c(-n5cc(C(F)(F)F)nn5)ccc(Cl)c4F)c[n+]3[O-])c2)cc1F (centres unmarked) [Example P892]
  IC50: 2.9 nM

## Cn1ncc(F)c1-c1cnn(C(CC2CC2)c2ccc(-c3c(-n4cnnn4)ccc(Cl)c3F)c[n+]2[O-])c1 (centres unmarked) [Example P478]
  IC50: 236 nM

## CN(CC(c1ccc(-c2c(-n3cnnn3)ccc(Cl)c2F)c[n+]1[O-])n1cc(-c2ccnc(C(F)(F)F)c2)cn1)C(=O)c1ccn(C)c(=O)c1 (single isomer, unassigned) [Example P434]
  IC50: 427 nM

## Cn1nnc(Cl)c1-c1cnn([C@H](CCOC(F)F)c2ccc(-c3c(-n4cnnn4)ccc(Cl)c3F)c[n+]2[O-])c1 [Example P726]
  IC50: 7.7 nM

## [O-][n+]1ccc(-c2cnn(C(Cn3cccn3)c3ccc(-c4c(-n5cnnn5)ccc(Cl)c4F)c[n+]3[O-])c2)nc1 (centres unmarked) [Example P320]
  IC50: 128 nM

## COC(=O)N(C)CC(c1ccc(-c2c(-n3cnnn3)ccc(Cl)c2F)c[n+]1[O-])n1cc(-c2ccnc(F)c2)cn1 (single isomer, unassigned) [Example P356]
  IC50: 30.7 nM

## [O-][n+]1cc(-c2c(-n3cnnn3)ccc(Cl)c2F)ccc1[C@@H](Cc1ccc(F)cc1)n1cc(-c2ccnn2C(F)F)cn1 [Example P568]
  IC50: 3.1 nM

## COC(=O)Nc1ccc(-c2cnn(C(Cn3cccn3)c3ccc(-c4c(-n5cnnn5)ccc(Cl)c4F)c[n+]3[O-])c2)cc1 (single isomer, unassigned) [Example P272]
  IC50: 3.2 nM

## COc1cc(C(CC2CC2)n2cc(-c3c(F)nnn3C)cn2)[n+]([O-])cc1-c1cc(Cl)ccc1C#N (single isomer, unassigned) [Example Q62]
  IC50: 80.9 nM

## CCCC(c1ccc(-c2c(-n3cnnn3)ccc(Cl)c2F)c[n+]1[O-])n1cc(-c2ccc(NC(=O)OC)cc2)cn1 (centres unmarked) [Example P156]
  IC50: 86.7 nM

## O=C(O)C1CCN(C(=O)C2CC2CC(c2ccc(-c3c(-n4cnnn4)ccc(Cl)c3F)c[n+]2[O-])n2cc(-c3ccccc3)cn2)CC1 (centres unmarked) [Example P215]
  IC50: 755 nM

## [O-][n+]1cc(-c2c(-n3cnnn3)ccc(Cl)c2F)ccc1C(CCOC(F)F)n1cc(-c2cn(C(F)F)nn2)cn1 (single isomer, unassigned) [Example P659]
  IC50: 170 nM

## COC(=O)Nc1ccc(-c2cnn(C(CC3CCC(C)(C)CC3)c3ccc(-c4c(-n5cnnn5)ccc(Cl)c4F)c[n+]3[O-])c2)cc1 (centres unmarked) [Example P122]
  IC50: 260 nM

## Cn1ccc(C[C@H](c2ccc(-c3cc(Cl)ccc3C#N)c[n+]2[O-])n2cc(-c3ccc(C(=O)O)cc3)cn2)n1 [Example Q47]
  IC50: 57.6 nM

## [O-][n+]1ccc(-c2cnn(C(Cc3ccc(Cl)cc3)c3ccc(-c4cc(Cl)ccc4-n4cnnn4)c[n+]3[O-])c2)cc1 (centres unmarked) [Example P172]
  IC50: 16.2 nM

## Cc1nccn1-c1cnn(C(CCOC(F)F)c2ccc(-c3c(-n4cc(OC(F)F)nn4)ccc(Cl)c3F)c[n+]2[O-])c1 (single isomer, unassigned) [Example P826]
  IC50: 303 nM

## NC(=O)c1ccc(-c2cnn(C(Cc3ccn(C(F)F)n3)c3ccc(-c4c(-n5cc(Cl)nn5)ccc(Cl)c4F)c[n+]3[O-])c2)cc1 (single isomer, unassigned) [Example P910]
  IC50: 30.7 nM

## [O-][n+]1cc(-c2c(-n3cnnn3)ccc(Cl)c2F)ccc1C(Cc1ccc(F)cc1)n1cc(-c2nnn(C(F)F)c2Cl)cn1 (centres unmarked) [Example P610]
  IC50: 582 nM

## COc1cc(C(CC2CC2)n2cc(-c3ncnn3C(F)F)cn2)[n+]([O-])cc1-c1cc(Cl)ccc1-n1cnnn1 (single isomer, unassigned) [Example P917]
  IC50: 3.9 nM

## Nc1cnc(-c2cnn(C(CCOC(F)F)c3ccc(-c4c(-n5cc(C(F)(F)F)nn5)ccc(Cl)c4F)c[n+]3[O-])c2)c(F)n1 (single isomer, unassigned) [Example P833]
  IC50: 62.7 nM

## Cn1ncc(Cl)c1-c1cnn(C(CC2CC2)c2ccc(-c3c(-n4cnnn4)ccc(Cl)c3F)c[n+]2[O-])c1 (centres unmarked) [Example P555]
  IC50: 573 nM

## NC(=O)c1ccc(-c2cnn(C(Cc3ccn(C(F)F)n3)c3ccc(-c4cc(Cl)ccc4-n4cc(C(F)(F)F)nn4)c[n+]3[O-])c2)cc1F (single isomer, unassigned) [Example P905]
  IC50: 889 nM

## O=C(O)c1ccc(-c2cnn(C(CN3CCCC3=O)c3ccc(-c4c(C(F)F)ccc(Cl)c4F)c[n+]3[O-])c2)cc1 (single isomer, unassigned) [Example Q15]
  IC50: 382 nM

## CC(=O)N(C)CC(c1ccc(-c2c(-n3cnnn3)ccc(Cl)c2F)c[n+]1[O-])n1cc(-c2ccnc(C(F)(F)F)c2)cn1 (single isomer, unassigned) [Example P404]
  IC50: 68.4 nM

## CC(=O)N(C)CC(c1ccc(-c2c(-n3cnnn3)ccc(Cl)c2F)c[n+]1[O-])n1cc(-c2cc[n+]([O-])cc2)cn1 (centres unmarked) [Example P351]
  IC50: 131 nM

## CCC(c1cc(OC)c(-c2cc(Cl)ccc2-n2cc(C(F)(F)F)nn2)c[n+]1[O-])n1cc(-c2ncnn2C(F)F)cn1 (single isomer, unassigned) [Example P923]
  IC50: 38.5 nM

## O=C(O)c1ccc(-c2cnn(C(Cc3ccc(Cl)cc3)c3ccc(-c4cc(Cl)ccc4-n4cnnn4)c[n+]3[O-])c2)cc1 (centres unmarked) [Example P57]
  IC50: 3.8 nM

## N#Cc1cn(-c2ccc(Cl)c(F)c2-c2ccc([C@@H](CCOC(F)F)n3cc(-c4cnnn4C(F)F)cn3)[n+]([O-])c2)nn1 [Example P817]
  IC50: 23.5 nM

## [O-][n+]1cc(-c2cc(Cl)ccc2-n2cnnn2)ccc1C(Cc1ccc(Cl)cc1)n1cc(-c2ccnc(F)c2)cn1 (centres unmarked) [Example P210]
  IC50: 22.8 nM

## COCC[C@@H](c1ccc(-c2c(-n3cnnn3)ccc(Cl)c2F)c[n+]1[O-])n1cc(-c2cc(C(F)(F)F)nn2C)cn1 [Example P620]
  IC50: 5290 nM

## COC(=O)Nc1ccc(-c2cnn(C(Cn3cccn3)c3ccc(-c4c(-n5cnnn5)ccc(Cl)c4F)c[n+]3[O-])c2)cc1 (single isomer, unassigned) [Example P273]
  IC50: 10.9 nM

## O=C(O)c1ccc(-c2cnn(C(CCOC(F)F)c3ccc(-c4c(-n5cc(C(F)(F)F)nn5)ccc(Cl)c4F)c[n+]3[O-])c2)cc1F (single isomer, unassigned) [Example P887]
  IC50: 5.8 nM

## COc1cc(C(Cc2ccn(C(F)F)n2)n2cc(-c3ccc(C(N)=O)c(F)c3)cn2)[n+]([O-])cc1-c1cc(Cl)ccc1C(C)=O (single isomer, unassigned) [Example Q77]
  IC50: 9.8 nM

## NC(=O)c1ccc(-c2cnn(C(Cc3ccn(C(F)F)n3)c3ccc(-c4c(C(F)F)ccc(Cl)c4F)c[n+]3[O-])c2)cc1 (single isomer, unassigned) [Example Q69]
  IC50: 0.8 nM

## O=C(c1ccn(CC(c2ccc(-c3c(-n4cnnn4)ccc(Cl)c3F)c[n+]2[O-])n2cc(-c3ccnc(C(F)(F)F)c3)cn2)n1)N1CCCCC1 (single isomer, unassigned) [Example P449]
  IC50: 12 nM

— patent publication US11814364B2, “Pyridine N-oxide derivatives useful as factor XIa inhibitors” (Janssen Pharmaceutica NV, priority 2021, dated 2023)
